Data reported in EP4534577A1, “NON-TOXIC LATENT POLYMERIZATION CATALYSTS FOR POLYURETHANES BASED ON TIN (IV) CHELATE COMPLEXES” (Tech Synt Ltd, priority 2023, dated 2025).

Columns and labels:
[1] = Solubility of catalyst in organic solvents; type: physicochemical
[2] = Gelation time in polyurethane synthesis model reaction with tin catalyst; conditions: for Catalyst effect 65°C: gel time with no catalyst (2580 seconds) divided by gel time with 0.5 mol % of the catalyst; for Catalyst effect 90C: gel time with no catalyst (750 seconds) divided by gel time with 0.5 mol % of the catalyst; for Latency: latent if gelation did not occur at room temperature for two hours at a catalyst concentration of 1 mol%; for Gelation time In argon t, s (65ºC) / Gelation time On air t, s (65ºC): 65 °C; for Gelation time In argon t, s (90ºC) / Gelation time On air t, s (90ºC): 90 °C
Procedure: A method for using the above-mentioned tin(IV) complexes to produce polyurethane is described in the following. The method consists of adding a solution of the above-mentioned catalyst in an organic solvent (THF) to a two-component mixture at a given temperature. The method is explained by examples of its implementation: Specifically, to a vigorously stirred solution of 4.5 ml (5.1 g, 8.4 mmol) polyethyleneglycol-600 1.35 ml (1.40 g, 8.3 mmol), hexamethylene diisocyanate was added (temperature control was performed by thermostating the reaction mixture at room temperature, 65°C, 90°C before adding the catalyst), and then the solution of the catalyst to be tested in 0.25 ml in THF was added as fast as possible. The flask with the reactants then was put into an oil bath at room temperature, 65°C or 90°C (depending on the experiment), and then time count was started. The end of reaction was defined as the stop of the magnetic stirrer. The time from start to stop is taken as the gelation time. Experiments conducted in air and in an inert gas atmosphere at different temperatures were compared.
The molar concentration of the catalyst is given with respect to the molar amount of the polyisocyanate. Table 1: Gelation time with selected tin catalysts.

[3] = Stability in ambient / moist air (visible change of powder on dry surface); type: physicochemical; conditions: for Air stability: powder poured onto a dry surface, left in ambient air
From the text: (§1) The alkoxy-based tin complexes (DMAE)2Sn(OtBu)2 and (DMAEIDE)Sn(OtBu)2 were obtained using procedures similar to the synthesis of the phenoxy-complexes. These complexes are stable under dry conditions.
(§2) Of special stability are complexes based on tetradentate Salen and Salan type ligands such as: […]

[4] = Stability on dissolution in wet organic solvent; type: physicochemical; conditions: wet / moist organic solvent
From the text: as §1, §2

With `CN1Cc2cc(C(C)(C)C)cc(C(C)(C)C)c2[O][Sn]2([O]c3c(cc(C(C)(C)C)cc3C(C)(C)C)C1)[O]c1c(cc(C(C)(C)C)cc1C(C)(C)C)CN(C)Cc1cc(C(C)(C)C)cc(C(C)(C)C)c1[O]2` the “Solubility Alkanes” value [1] was “++ (between 0.1 and 1.0)”, the “Solubility CH2Cl2/CHCl3” value [1] was “+++ (higher than 1.0 mol/L)” and the “Solubility PhMe” value [1] was “+++ (higher than 1.0 mol/L)”. The “Solubility THF” value [1] was “+++ (higher than 1.0 mol/L)”, the “Catalyst effect 65°C” value [2] was 2.4 and the “Catalyst effect 90C” value [2] was 3.8. For the same molecule, the Latency [2] was “yes” and the Air stability [3] was “good (If there was no visible change within an hour, such as discoloration or melting into droplets due to hygroscopicity, then the stability of the compound was considered good)”.
In the case of `CN(C)CC[O][Sn]([O]CCN(C)C)([O]C(C)(C)C)[O]C(C)(C)C` [(DMAE)2Sn(OtBu)2, reference compound], the “gel time compared with no catalyst” value ([2]; 0.1 mol% concentration, under air) is reported as “the same as for no catalyst”, the “Gelation time In argon t, s (65ºC)” value ([2]; c 0.1 % mol.) is reported as 410 s and the “Gelation time In argon t, s (90ºC)” value ([2]; c 0.1 % mol.) is reported as 185 s. For the same molecule, the “Gelation time On air t, s (65ºC)” value ([2]; c 0.1 % mol.) was 2580 s, the “Gelation time On air t, s (90ºC)” value ([2]; c 0.1 % mol.) was 750 s and the “Gelation time In argon t, s (65ºC)” value ([2]; c 1 % mol.) was 230 s. The “Gelation time In argon t, s (90ºC)” value ([2]; c 1 % mol.) was 150 s, the “Gelation time On air t, s (65ºC)” value ([2]; c 1 % mol.) was 540 s and the “Gelation time On air t, s (90ºC)” value ([2]; c 1 % mol.) was 280 s. For the same molecule, the Hygroscopicity [3] was “rather hygroscopic”, the “Visible change of powder in moist air” value ([3]; powder poured on a dry surface in moist air) was “change their appearance within half an hour” and the “Decomposition on dissolution in wet organic solvent” value [4] was “instantly leads to the decomposition”.
In the case of `C1=NCC[O][Sn]2([O]CCN=Cc3ccccc3[O]2)[O]c2ccccc21` (stereo not drawn), the “Solubility Alkanes” value [1] is reported as “+- (less than 0.01 mol/L)”, the “Solubility CH2Cl2/CHCl3” value [1] is reported as “+- (less than 0.01 mol/L)” and the “Solubility PhMe” value [1] is reported as “+ (between 0.01 and 0.1 mol/L)”. For the same molecule, the “Solubility THF” value [1] was “+ (between 0.01 and 0.1 mol/L)”, the “Catalyst effect 65°C” value [2] was 12.3 and the “Catalyst effect 90C” value [2] was 6.3. For the same molecule, the Latency [2] was “yes” and the Air stability [3] was “good (If there was no visible change within an hour, such as discoloration or melting into droplets due to hygroscopicity, then the stability of the compound was considered good)”.
With `CC(C)(C)[O][Sn]1([O]C(C)(C)C)[O]c2c(cc(C(C)(C)C)cc2C(C)(C)C)CN2CCN(CC2)Cc2cc(C(C)(C)C)cc(C(C)(C)C)c2[O]1` the “Solubility Alkanes” value [1] was “+- (less than 0.01 mol/L)”, the “Solubility CH2Cl2/CHCl3” value [1] was “+++ (higher than 1.0 mol/L)” and the “Solubility PhMe” value [1] was “+++ (higher than 1.0 mol/L)”. For the same molecule, the “Solubility THF” value [1] was “++ (between 0.1 and 1.0)”, the “Catalyst effect 65°C” value [2] was 5.7 and the “Catalyst effect 90C” value [2] was 2.8. For the same molecule, the Latency [2] was “yes” and the Air stability [3] was “excellent (Excellent stability was attributed to compounds for which no visible change was found within 24 hours)”.
